Measured values as given in US20130309736A1, “COMPOSITIONS AND METHODS FOR MALATE AND FUMARATE PRODUCTION” (CARGILL, INCORPORATED, priority 2011, published 2013).

Assays:
Type in all cases: cell-based
Candida geochares [1] = test: Growth rate in YPD shake flasks (first secondary screen)
Method: (§1) For the first secondary screen, growth rates were measured in YPD media containing 0 g/L malate at pH 3.0 or 200 g/L malate at pH 2.85. Shake flasks were inoculated with biomass harvested from seed flasks grown overnight to an OD600 of 6 to 10. 250 mL baffled growth rate flasks (50 mL working volume) were inoculated to an OD600 of 0.1 and grown at 250 rpm and 30° C. Samples were taken throughout the time course of the assay and analyzed for biomass growth via OD600. The resulting OD600 data was plotted and growth rates were established.
(§2) The same procedures were utilized to screen, rate, and score the original 91 wild-type yeast strains from the primary screen with media containing 0, 30, 45, and 60 g/L lactic acid at pH 3.0 (˜80% free acid). Due to difficulties in properly scoring some very weak growth that occasionally occurred at 60 g/L, 20 strains were re-tested in the primary screen. Of these 20 strains, eight were eliminated due to very slow growth relative to the rest of the test group. The remaining 12 strains were advanced into secondary screening. The secondary screen for lactic acid was the same as that described above for malate, except for changes in concentrations and pH values. Growth rates were measured at 0 g/L lactic acid, pH 3.0 and 50 g/L lactic acid, pH 2.85, and glucose consumption rates were measured in the presence of 50 g/L lactic acid, pH 2.85. Normalized values and weighted and summed scores were calculated for each strain as described above for malate.

[2] = tested on: Candida lambica ATCC 38617; test: as above
Method: as §1, §2

[3] = tested on: Candida milleri ATCC 60592; test: as above
Method: as §1, §2

[4] = tested on: Candida sorbosivorans ATCC 38619; test: as above; details: Candida sorosivorans, scale 0 to 1
Method: as §1, §2

[5] = tested on: Candida zemplinina PYCC 04-501; test: as above
Method: as §1, §2

[6] = tested on: Issatchenkia orientalis ATCC 24210; test: as above
Method: as §1, §2

[7] = tested on: Issatchenkia orientalis ATCC PTA-6658; test: as above
Method: as §1, §2

[8] = tested on: Issatchenkia orientalis CD1822; test: as above
Method: as §1, §2

[9] = tested on: Kodamaea ohmeri ATCC 20282; test: as above
Method: as §1, §2

[10] = tested on: Saccharomyces bayanus ATCC 90739; test: as above
Method: as §1, §2

[11] = tested on: Saccharomyces bulderi ATCC MYA-402; test: as above
Method: as §1, §2

[12] = tested on: Saccharomyces bulderi ATCC MYA-404; test: as above
Method: as §1, §2

Saccharomyces javensis [13] = test: as above
Method: as §1, §2

Candida geochares [14] = test: Glucose consumption rate in YPD shake flasks (second secondary screen); details: 50 g/L lactic acid, pH 2.85, scale 0 to 1
Method: (§3) For the second secondary screen, glucose consumption was measured in YPD media containing 0 g/L malate at pH 3.0 or 200 g/L malate at pH 2.85. Shake flasks were inoculated with biomass harvested from seed flasks grown overnight to an OD600 of 6 to 10. 250 mL baffled glycolytic assay flasks (50 mL working volume) were inoculated to an OD600 of 0.1 and grown at 250 RPM and 30° C. Samples were taken throughout the time course of the assay and analyzed for glucose consumption using a 2700 Biochemistry Analyzer (Yellow Springs Instruments, YSI). The resulting data was plotted and glucose consumption rates were established.
as §2

[15] = tested on: Candida lambica ATCC 38617; test: as above; details: 50 g/L lactic acid, pH 2.85, scale 0 to 1
Method: as §3, §2

[16] = tested on: Candida milleri ATCC 60592; test: as above; details: 50 g/L lactic acid, pH 2.85, scale 0 to 1
Method: as §3, §2

[17] = tested on: Candida sorbosivorans ATCC 38619; test: as above; details: Candida sorosivorans; 50 g/L lactic acid, pH 2.85; scale 0 to 1
Method: as §3, §2

[18] = tested on: Candida zemplinina PYCC 04-501; test: as above; details: 50 g/L lactic acid, pH 2.85, scale 0 to 1
Method: as §3, §2

[19] = tested on: Issatchenkia orientalis ATCC 24210; test: as above; details: 50 g/L lactic acid, pH 2.85, scale 0 to 1
Method: as §3, §2

[20] = tested on: Issatchenkia orientalis ATCC PTA-6658; test: as above; details: 50 g/L lactic acid, pH 2.85, scale 0 to 1
Method: as §3, §2

[21] = tested on: Issatchenkia orientalis CD1822; test: as above; details: 50 g/L lactic acid, pH 2.85, scale 0 to 1
Method: as §3, §2

[22] = tested on: Kodamaea ohmeri ATCC 20282; test: as above; details: 50 g/L lactic acid, pH 2.85, scale 0 to 1
Method: as §3, §2

[23] = tested on: Saccharomyces bayanus ATCC 90739; test: as above; details: 50 g/L lactic acid, pH 2.85, scale 0 to 1
Method: as §3, §2

[24] = tested on: Saccharomyces bulderi ATCC MYA-402; test: as above; details: 50 g/L lactic acid, pH 2.85, scale 0 to 1
Method: as §3, §2

[25] = tested on: Saccharomyces bulderi ATCC MYA-404; test: as above; details: 50 g/L lactic acid, pH 2.85, scale 0 to 1
Method: as §3, §2

Saccharomyces javensis [26] = test: as above; details: 50 g/L lactic acid, pH 2.85, scale 0 to 1
Method: as §3, §2

CC(O)C(=O)O (stereo not drawn) [lactic acid]
Normalized grade: Growth rate slope (Candida geochares [1]; lactic acid, scale 0 to 1): 0.27
Normalized grade: Growth rate 50 g/L lactic acid (Candida geochares [1]; pH 2.85, scale 0 to 1): 0.17
Normalized grade: Growth rate slope ([2]; lactic acid, scale 0 to 1): 1
Normalized grade: Growth rate 50 g/L lactic acid ([2]; pH 2.85, scale 0 to 1): 0.92
Normalized grade: Growth rate slope ([3]; lactic acid, scale 0 to 1): 0.64
Normalized grade: Growth rate 50 g/L lactic acid ([3]; pH 2.85, scale 0 to 1): 0
Normalized grade: Growth rate slope ([4]; lactic acid): 0.95
Normalized grade: Growth rate 50 g/L lactic acid ([4]; pH 2.85): 0.28
Normalized grade: Growth rate slope ([5]; lactic acid, scale 0 to 1): 0.95
Normalized grade: Growth rate 50 g/L lactic acid ([5]; pH 2.85, scale 0 to 1): 0.22
Normalized grade: Growth rate slope ([6]; lactic acid, scale 0 to 1): 0.73
Normalized grade: Growth rate 50 g/L lactic acid ([6]; pH 2.85, scale 0 to 1): 0.89
Normalized grade: Growth rate slope ([7]; lactic acid, scale 0 to 1): 0.95
Normalized grade: Growth rate 50 g/L lactic acid ([7]; pH 2.85, scale 0 to 1): 0.94
Normalized grade: Growth rate slope ([8]; lactic acid, scale 0 to 1): 0.86
Normalized grade: Growth rate 50 g/L lactic acid ([8]; pH 2.85, scale 0 to 1): 1.00
Normalized grade: Growth rate slope ([9]; lactic acid, scale 0 to 1): 0
Normalized grade: Growth rate 50 g/L lactic acid ([9]; pH 2.85, scale 0 to 1): 0.42
Normalized grade: Growth rate slope ([10]; lactic acid, scale 0 to 1): 0.91
Normalized grade: Growth rate 50 g/L lactic acid ([10]; pH 2.85, scale 0 to 1): 0.08
Normalized grade: Growth rate slope ([11]; lactic acid, scale 0 to 1): 0.23
Normalized grade: Growth rate 50 g/L lactic acid ([11]; pH 2.85, scale 0 to 1): 0.5
Normalized grade: Growth rate slope ([12]; lactic acid, scale 0 to 1): 0.45
Normalized grade: Growth rate 50 g/L lactic acid ([12]; pH 2.85, scale 0 to 1): 0.47
Normalized grade: Growth rate slope (Saccharomyces javensis [13]; lactic acid, scale 0 to 1): 0.68
Normalized grade: Growth rate 50 g/L lactic acid (Saccharomyces javensis [13]; pH 2.85, scale 0 to 1): 0.11
Normalized grade: Glycolic rate (Candida geochares [14]): 0.69
Normalized grade: Glycolic rate [15]: 1
Normalized grade: Glycolic rate [16]: 0.92
Normalized grade: Glycolic rate [17]: 0.59
Normalized grade: Glycolic rate [18]: 1
Normalized grade: Glycolic rate [19]: 1
Normalized grade: Glycolic rate [20]: 1
Normalized grade: Glycolic rate [21]: 1
Normalized grade: Glycolic rate [22]: 0.76
Normalized grade: Glycolic rate [23]: 0.96
Normalized grade: Glycolic rate [24]: 1
Normalized grade: Glycolic rate [25]: 1
Normalized grade: Glycolic rate (Saccharomyces javensis [26]): 0
